Source: US11771773B2, “Pharmaceutical preparation containing polyethylene gylcol loxenatide and preparation method thereof” (Jiangsu Hansoh Pharmaceutical Group Co., Ltd., priority 2016, dated 2023)

How the values were obtained:
[1] = tested on: type 2 diabetes db/db mice; conditions: injected subcutaneously once every three days

Substance: polyethylene glycol loxenatide
- glucose-dependent insulinotropic function (normal rats): Good glucose-dependent insulinotropic function
- body weight [1]: reduced
- efficacy compared with Exenatide injected subcutaneously twice a day [1]: comparable to that of Exenatide
- fasting blood glucose [1]: significantly reduced
- glucose tolerance [1]: improved
- random blood glucose [1]: significantly reduced
- serum fructosamine levels [1]: significantly reduced
